From US20230085307A1, “PYRIDAZINONE COMPOUND AND HERBICIDE” (NISSAN CHEMICAL CORPORATION, priority 2019, published 2023)

Tests used:
late watergrass = test: Test Example 1: herbicidal activity, application before weed generation under submerged conditions (Table 16, symbol A); type: in vivo, late watergrass (Echinochloa oryzicola); conditions: 320 g/ha applied herbicide
How it was run: (§1)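 Alluvial soil was flooded to 4 cm depth, weed seeds were sown mixed and 2.5-leaf rice seedlings were transplanted. On sowing day, the compound's emulsion, diluted in water to a set dose, was applied to the water surface. Plants grew at 25–30 °C and were scored 0–5 after three weeks.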

Japanese bulrush = test: Test Example 1: herbicidal activity, application before weed generation under submerged conditions (Table 16, symbol B); type: in vivo, Japanese bulrush (Schoenoplectus juncoides); conditions: 320 g/ha applied herbicide
How it was run: as §1

oval-leafed pondweed = test: Test Example 1: herbicidal activity, application before weed generation under submerged conditions (Table 16, symbol C); type: in vivo, oval-leafed pondweed (Monochoria vaginalis); conditions: 320 g/ha applied herbicide
How it was run: as §1

barnyard grass [1] = test: Test Example 3: herbicidal effect by foliage application, Wagner pot (Table 18, symbol H); type: in vivo, barnyard grass (Echinochloa crus-galli); conditions: 320 g/ha
How it was run: (§2)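 Plants were sown in alluvial soil held under 0.1–0.5 cm standing water and grown 14 days in a greenhouse at 25–30 °C. An emulsifiable formulation, water-diluted to the set dose, was then sprayed onto the foliage, and effects were scored three weeks later using previously defined criteria.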

Chinese sprangletop = test: Test Example 3: herbicidal effect by foliage application, Wagner pot (Table 18, symbol D); type: in vivo, chinese sprangletop (Leptochloa chinensis); conditions: 320 g/ha
How it was run: as §2

southern crabgrass [2] = test: Test Example 4: herbicidal effect by soil treatment (Table 19, symbol F); type: in vivo, southern crabgrass (Digitaria ciliaris); conditions: AAH 320 g/ha
How it was run: (§3)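 Three weeks of greenhouse growth at 25° C. to 30° C. followed a uniform surface spray of water-diluted emulsion at a predetermined herbicide amount. Seeds had been sown beforehand under about 1.5 cm of sterilized diluvial soil. Grading followed criteria set out in an earlier test.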

green foxtail [3] = test: Test Example 4: herbicidal effect by soil treatment (Table 19, symbol G); type: in vivo, green foxtail (Setaria viridis); conditions: AAH 320 g/ha
How it was run: as §3

barnyard grass [4] = test: Test Example 4: herbicidal effect by soil treatment (Table 19, symbol H); type: in vivo, barnyard grass (Echinochloa crus-galli); conditions: AAH 320 g/ha
How it was run: as §3

wild oat [5] = test: Test Example 4: herbicidal effect by soil treatment (Table 19, symbol I); type: in vivo, wild oat (Avena fatua); conditions: AAH 320 g/ha
How it was run: as §3

blackgrass [6] = test: Test Example 4: herbicidal effect by soil treatment (Table 19, symbol J); type: in vivo, blackgrass (Alopecurus myosuroides); conditions: AAH 320 g/ha
How it was run: as §3

Italian ryegrass [7] = test: Test Example 4: herbicidal effect by soil treatment (Table 19, symbol K); type: in vivo, Italian ryegrass (Lolium multiflorum); conditions: AAH 320 g/ha
How it was run: as §3

windgrass [8] = test: Test Example 4: herbicidal effect by soil treatment (Table 19, symbol L); type: in vivo, windgrass (Apera spica-venti); conditions: AAH 320 g/ha
How it was run: as §3

velvetleaf [9] = test: Test Example 4: herbicidal effect by soil treatment (Table 19, symbol M); type: in vivo, velvetleaf (Abutilon theophrasti); conditions: AAH 320 g/ha
How it was run: as §3

redroot pigweed [10] = test: Test Example 4: herbicidal effect by soil treatment (Table 19, symbol N); type: in vivo, redroot pigweed (Amaranthus retroflexus); conditions: AAH 320 g/ha
How it was run: as §3

lambsquarters [11] = test: Test Example 4: herbicidal effect by soil treatment (Table 19, symbol O); type: in vivo, lambsquarters (Chenopodium album); conditions: AAH 320 g/ha
How it was run: as §3

chickweed [12] = test: Test Example 4: herbicidal effect by soil treatment (Table 19, symbol P); type: in vivo, common chickweed (Stellaria media); conditions: AAH 320 g/ha
How it was run: as §3

persian speedwell [13] = test: Test Example 4: herbicidal effect by soil treatment (Table 19, symbol R); type: in vivo, Persian speedwell (Veronica persica); conditions: AAH 320 g/ha
How it was run: as §3

southern crabgrass [14] = test: Test Example 5: herbicidal effect by foliage application, plastic box (Table 20, symbol F); type: in vivo, southern crabgrass (Digitaria ciliaris); conditions: foliage application, AAH 320 g/ha, three weeks after application
How it was run: (§4)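 Plants sown in sterilized diluvial soil and grown 14 days in a greenhouse at 25° C to 30° C, then sprayed on the foliage with the compound's emulsion diluted in water to a predetermined herbicide amount. Injury to weeds and crops scored three weeks after application on a visual rating scale.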

green foxtail [15] = test: Test Example 5: herbicidal effect by foliage application, plastic box (Table 20, symbol G); type: in vivo, green foxtail (Setaria viridis); conditions: foliage application, AAH 320 g/ha, three weeks after application
How it was run: as §4

barnyard grass [16] = test: Test Example 5: herbicidal effect by foliage application, plastic box (Table 20, symbol H); type: in vivo, barnyard grass (Echinochloa crus-galli); conditions: foliage application, AAH 320 g/ha, three weeks after application
How it was run: as §4

wild oat [17] = test: Test Example 5: herbicidal effect by foliage application, plastic box (Table 20, symbol I); type: in vivo, wild oat (Avena fatua); conditions: foliage application, AAH 320 g/ha, three weeks after application
How it was run: as §4

blackgrass [18] = test: Test Example 5: herbicidal effect by foliage application, plastic box (Table 20, symbol J); type: in vivo, blackgrass (Alopecurus myosuroides); conditions: foliage application, AAH 320 g/ha, three weeks after application
How it was run: as §4

Italian ryegrass [19] = test: Test Example 5: herbicidal effect by foliage application, plastic box (Table 20, symbol K); type: in vivo, Italian ryegrass (Lolium multiflorum); conditions: foliage application, AAH 320 g/ha, three weeks after application
How it was run: as §4

windgrass [20] = test: Test Example 5: herbicidal effect by foliage application, plastic box (Table 20, symbol L); type: in vivo, windgrass (Apera spica-venti); conditions: foliage application, AAH 320 g/ha, three weeks after application
How it was run: as §4

velvetleaf [21] = test: Test Example 5: herbicidal effect by foliage application, plastic box (Table 20, symbol M); type: in vivo, velvetleaf (Abutilon theophrasti); conditions: foliage application, AAH 320 g/ha, three weeks after application
How it was run: as §4

redroot pigweed [22] = test: Test Example 5: herbicidal effect by foliage application, plastic box (Table 20, symbol N); type: in vivo, redroot pigweed (Amaranthus retroflexus); conditions: foliage application, AAH 320 g/ha, three weeks after application
How it was run: as §4

lambsquarters [23] = test: Test Example 5: herbicidal effect by foliage application, plastic box (Table 20, symbol O); type: in vivo, lambsquarters (Chenopodium album); conditions: foliage application, AAH 320 g/ha, three weeks after application
How it was run: as §4

chickweed [24] = test: Test Example 5: herbicidal effect by foliage application, plastic box (Table 20, symbol P); type: in vivo, common chickweed (Stellaria media); conditions: foliage application, AAH 320 g/ha, three weeks after application
How it was run: as §4

persian speedwell [25] = test: Test Example 5: herbicidal effect by foliage application, plastic box (Table 20, symbol R); type: in vivo, Persian speedwell (Veronica persica); conditions: foliage application, AAH 320 g/ha, three weeks after application
How it was run: as §4

CC(=O)COc1ccc(-c2sc3ccccc3c2-c2c(O)c(C)nn(C)c2=O)cc1 [1-143]
Herbicidal effect on A: late watergrass (grade 0-5) (late watergrass): 3 (Herbicidal rate of 40% or more and less than 70%) | Herbicidal effect on B: Japanese bulrush (grade 0-5) (Japanese bulrush): 0 (Herbicidal rate of 5% or less (almost no effect)) | Herbicidal effect on C: oval-leafed pondweed (grade 0-5) (oval-leafed pondweed): 0 (Herbicidal rate of 5% or less (almost no effect)) | herbicidal effect on H (barnyard grass), rating 0-5 (barnyard grass [1]): 5 (Herbicidal rate of 90% or more (almost completely withered)) | herbicidal effect on D (Chinese sprangletop), rating 0-5 (Chinese sprangletop): 0 (Herbicidal rate of 5% or less (almost no effect)) | F: southern crabgrass, herbicidal effect rating (southern crabgrass [2]): 3 (Herbicidal rate of 40% or more and less than 70%) | G: green foxtail, herbicidal effect rating (green foxtail [3]): 4 (Herbicidal rate of 70% or more and less than 90%) | H: barnyard grass, herbicidal effect rating (barnyard grass [4]): 4 (Herbicidal rate of 70% or more and less than 90%) | I: wild oat, herbicidal effect rating (wild oat [5]): 0 (Herbicidal rate of 5% or less (almost no effect)) | J: blackgrass, herbicidal effect rating (blackgrass [6]): 0 (Herbicidal rate of 5% or less (almost no effect)) | K: Italian ryegrass, herbicidal effect rating (Italian ryegrass [7]): 0 (Herbicidal rate of 5% or less (almost no effect)) | L: windgrass, herbicidal effect rating (windgrass [8]): 0 (Herbicidal rate of 5% or less (almost no effect)) | M: velvetleaf, herbicidal effect rating (velvetleaf [9]): 4 (Herbicidal rate of 70% or more and less than 90%) | N: redroot pigweed, herbicidal effect rating (redroot pigweed [10]): 4 (Herbicidal rate of 70% or more and less than 90%) | O: lambsquarters, herbicidal effect rating (lambsquarters [11]): 5 (Herbicidal rate of 90% or more (almost completely withered)) | P: chickweed, herbicidal effect rating (chickweed [12]): 0 (Herbicidal rate of 5% or less (almost no effect)) | R: persian speedwell, herbicidal effect rating (persian speedwell [13]): 3 (Herbicidal rate of 40% or more and less than 70%) | F: southern crabgrass, herbicidal effect (southern crabgrass [14]): 3 (Herbicidal rate of 40% or more and less than 70%) | G: green foxtail, herbicidal effect (green foxtail [15]): 5 (Herbicidal rate of 90% or more (almost completely withered)) | H: barnyard grass, herbicidal effect (barnyard grass [16]): 4 (Herbicidal rate of 70% or more and less than 90%) | I: wild oat, herbicidal effect (wild oat [17]): 0 (Herbicidal rate of 5% or less (almost no effect)) | J: blackgrass, herbicidal effect (blackgrass [18]): 0 (Herbicidal rate of 5% or less (almost no effect)) | K: Italian ryegrass, herbicidal effect (Italian ryegrass [19]): 4 (Herbicidal rate of 70% or more and less than 90%) | L: windgrass, herbicidal effect (windgrass [20]): 4 (Herbicidal rate of 70% or more and less than 90%) | M: velvetleaf, herbicidal effect (velvetleaf [21]): 5 (Herbicidal rate of 90% or more (almost completely withered)) | N: redroot pigweed, herbicidal effect (redroot pigweed [22]): 4 (Herbicidal rate of 70% or more and less than 90%) | O: lambsquarters, herbicidal effect (lambsquarters [23]): 4 (Herbicidal rate of 70% or more and less than 90%) | P: chickweed, herbicidal effect (chickweed [24]): 5 (Herbicidal rate of 90% or more (almost completely withered)) | R: persian speedwell, herbicidal effect (persian speedwell [25]): 5 (Herbicidal rate of 90% or more (almost completely withered))
